Data as given in US10800791B2, “Triazole ACC inhibitors and uses thereof” (Gilead Apollo, LLC, priority 2015, dated 2020).
Converted amounts (≈) assume the structure as drawn. Like-named read-outs stand apart in the source and are kept apart here.

Experiments:
human (hACC2) = human (hACC2) (Homo sapiens, UniProt O00763); experiment: In vitro ACC inhibition assay (ADP-Glo), hACC2; assay type: biochemical; settings: Table 2b, additional results, 5 nM ACC2, 20 μM ATP, 20 μM acetyl-CoA
Description: The detailed procedure is as follows. […] 10 μL ADP glo reagent was added. […] 20 μL kinase detection reagent was added.

C. albicans = experiment: Antifungal Activity Assay (broth microtiter MIC), C. albicans; assay type: cell-based, Candida albicans; settings: Candida albicans, ATCC90028, 48 h
Procedure, shortened: (§1)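 CLSI M27-A3 microdilution; RPMI 1640+MOPS; 2.5×10^3 CFU/mL final inoculum; cultures from Sabouraud dextrose agar, 35° C overnight; compound working solution 128 μg/mL from 1 mg/mL DMSO stock; visual MIC at 48 h vs growth control.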

C. krusei = experiment: Antifungal Activity Assay (broth microtiter MIC), C. krusei; assay type: cell-based, Candida krusei; settings: Pichia kudriavzevii, ATCC6258, 48 h
Procedure, shortened: as §1

C. parapsilosis = experiment: Antifungal Activity Assay (broth microtiter MIC), C. parapsilosis; assay type: cell-based, Candida parapsilosis; settings: Lodderomyces parapsilosis, ATCC22019, 48 h
Procedure, shortened: as §1

Botrtyis cinerea (Bc) = experiment: Growth inhibition assay of fungal pathogens, Bc; assay type: cell-based; settings: 48 h, growth inhibition at 48 hours vs 2% DMSO control
Procedure, shortened: (§2)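 Spore suspension in 17% V8 liquid media; cpd final 50/10/2 or 2/0.4/0.08 ppm, 2% DMSO. OD600 + visual, 24 & 48 h; % inhibition at 48 h vs 2% DMSO ctrl.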

[1] = system: Collectotrichum graminicola (Cg); experiment: Growth inhibition assay of fungal pathogens, Cg; assay type: cell-based; settings: 48 h, growth inhibition at 48 hours vs 2% DMSO control
Procedure, shortened: as §2

Diplodia maydis (Dm) = experiment: Growth inhibition assay of fungal pathogens, Dm; assay type: cell-based; settings: Stenocarpella maydis, 48 h, growth inhibition at 48 hours vs 2% DMSO control
Procedure, shortened: as §2

[2] = system: Fusarium moniliforme (Fm); experiment: Growth inhibition assay of fungal pathogens, Fm; assay type: cell-based; settings: Fusarium verticillioides, 48 h, read-out: Concentration at 90% Inhibition Fm
Procedure, shortened: as §2

[3] = system: Fusarium virguliforme (Fv); experiment: Growth inhibition assay of fungal pathogens, Fv; assay type: cell-based; settings: 48 h
Procedure, shortened: as §2

[4] = system: Phytophthora capsici (Pc); experiment: Growth inhibition assay of fungal pathogens, Pc; assay type: cell-based; settings: 48 h
Procedure, shortened: as §2

Rhizoctonia solani (Rs) = experiment: Growth inhibition assay of fungal pathogens, Rs; assay type: cell-based; settings: 48 h
Septoria tritici (St) = experiment: Growth inhibition assay of fungal pathogens, St; assay type: cell-based; settings: Zymoseptoria tritici, 48 h, growth inhibition at 48 hours vs 2% DMSO control
Procedure, shortened: as §2

fungal (fACC2) = fungal (fACC2) (UniProt Q00955); settings: read-out: fACC2 (in vitro ACC2 Inhibition Assay, IC50); Table 2b, additional results; ADP-Glo, 5 nM ACC2, 20 μM ATP, 20 μM acetyl-CoA
[5] = Table 3b (additional results), ATCC 90028, 3 replicates, MIC recorded at 48 h, read-out: MIC, C. albicans ATCC 90028
[6] = Table 3b (additional results), ATCC 6258, 3 replicates, MIC recorded at 48 h, read-out: MIC, C. krusei ATCC 6258
[7] = Table 3b (additional results), ATCC 22019, 3 replicates, MIC recorded at 48 h, read-out: MIC, C. parapsilosis ATCC 22019
[8] = Botrtyis cinerea, read-out: Concentration at 90% Inhibition Bc
[9] = Collectotrichum graminicola, read-out: Concentration at 90% Inhibition Cg
[10] = Diplodia maydis, read-out: Concentration at 90% Inhibition Dm
[11] = Fusarium moniliforme, growth inhibition at 48 hours vs 2% DMSO control
[12] = growth inhibition at 48 hours vs 2% DMSO control, read-out: Concentration at 90% Inhibition Fv
[13] = growth inhibition at 48 hours vs 2% DMSO control, read-out: Concentration at 90% Inhibition Pc
[14] = mycelial plugs, growth inhibition at 48 hours vs 2% DMSO control, read-out: Concentration at 90% Inhibition Rs
[15] = Septoria tritici, read-out: Concentration at 90% Inhibition St
[16] = read-out: MIC, C. albicans ATCC 90028, Table 3b (additional results), 3 replicates, MIC recorded at 48 h
[17] = read-out: MIC, C. krusei ATCC 6258, Table 3b (additional results), 3 replicates, MIC recorded at 48 h
[18] = read-out: MIC, C. parapsilosis ATCC 22019, Table 3b (additional results), 3 replicates, MIC recorded at 48 h
[19] = read-out: Concentration at 90% Inhibition Bc, Botrtyis cinerea
[20] = read-out: Concentration at 90% Inhibition Cg, Collectotrichum graminicola
[21] = read-out: Concentration at 90% Inhibition Dm, Diplodia maydis
[22] = read-out: Concentration at 90% Inhibition Fv, Fusarium virguliforme, growth inhibition at 48 hours vs 2% DMSO control
[23] = read-out: Concentration at 90% Inhibition Pc, Phytophthora capsici, growth inhibition at 48 hours vs 2% DMSO control
[24] = read-out: Concentration at 90% Inhibition Rs, Rhizoctonia solani, mycelial plugs, growth inhibition at 48 hours vs 2% DMSO control
[25] = read-out: Concentration at 90% Inhibition St, Septoria tritici

fungal (fACC2), sequence (Q00955 whole entry): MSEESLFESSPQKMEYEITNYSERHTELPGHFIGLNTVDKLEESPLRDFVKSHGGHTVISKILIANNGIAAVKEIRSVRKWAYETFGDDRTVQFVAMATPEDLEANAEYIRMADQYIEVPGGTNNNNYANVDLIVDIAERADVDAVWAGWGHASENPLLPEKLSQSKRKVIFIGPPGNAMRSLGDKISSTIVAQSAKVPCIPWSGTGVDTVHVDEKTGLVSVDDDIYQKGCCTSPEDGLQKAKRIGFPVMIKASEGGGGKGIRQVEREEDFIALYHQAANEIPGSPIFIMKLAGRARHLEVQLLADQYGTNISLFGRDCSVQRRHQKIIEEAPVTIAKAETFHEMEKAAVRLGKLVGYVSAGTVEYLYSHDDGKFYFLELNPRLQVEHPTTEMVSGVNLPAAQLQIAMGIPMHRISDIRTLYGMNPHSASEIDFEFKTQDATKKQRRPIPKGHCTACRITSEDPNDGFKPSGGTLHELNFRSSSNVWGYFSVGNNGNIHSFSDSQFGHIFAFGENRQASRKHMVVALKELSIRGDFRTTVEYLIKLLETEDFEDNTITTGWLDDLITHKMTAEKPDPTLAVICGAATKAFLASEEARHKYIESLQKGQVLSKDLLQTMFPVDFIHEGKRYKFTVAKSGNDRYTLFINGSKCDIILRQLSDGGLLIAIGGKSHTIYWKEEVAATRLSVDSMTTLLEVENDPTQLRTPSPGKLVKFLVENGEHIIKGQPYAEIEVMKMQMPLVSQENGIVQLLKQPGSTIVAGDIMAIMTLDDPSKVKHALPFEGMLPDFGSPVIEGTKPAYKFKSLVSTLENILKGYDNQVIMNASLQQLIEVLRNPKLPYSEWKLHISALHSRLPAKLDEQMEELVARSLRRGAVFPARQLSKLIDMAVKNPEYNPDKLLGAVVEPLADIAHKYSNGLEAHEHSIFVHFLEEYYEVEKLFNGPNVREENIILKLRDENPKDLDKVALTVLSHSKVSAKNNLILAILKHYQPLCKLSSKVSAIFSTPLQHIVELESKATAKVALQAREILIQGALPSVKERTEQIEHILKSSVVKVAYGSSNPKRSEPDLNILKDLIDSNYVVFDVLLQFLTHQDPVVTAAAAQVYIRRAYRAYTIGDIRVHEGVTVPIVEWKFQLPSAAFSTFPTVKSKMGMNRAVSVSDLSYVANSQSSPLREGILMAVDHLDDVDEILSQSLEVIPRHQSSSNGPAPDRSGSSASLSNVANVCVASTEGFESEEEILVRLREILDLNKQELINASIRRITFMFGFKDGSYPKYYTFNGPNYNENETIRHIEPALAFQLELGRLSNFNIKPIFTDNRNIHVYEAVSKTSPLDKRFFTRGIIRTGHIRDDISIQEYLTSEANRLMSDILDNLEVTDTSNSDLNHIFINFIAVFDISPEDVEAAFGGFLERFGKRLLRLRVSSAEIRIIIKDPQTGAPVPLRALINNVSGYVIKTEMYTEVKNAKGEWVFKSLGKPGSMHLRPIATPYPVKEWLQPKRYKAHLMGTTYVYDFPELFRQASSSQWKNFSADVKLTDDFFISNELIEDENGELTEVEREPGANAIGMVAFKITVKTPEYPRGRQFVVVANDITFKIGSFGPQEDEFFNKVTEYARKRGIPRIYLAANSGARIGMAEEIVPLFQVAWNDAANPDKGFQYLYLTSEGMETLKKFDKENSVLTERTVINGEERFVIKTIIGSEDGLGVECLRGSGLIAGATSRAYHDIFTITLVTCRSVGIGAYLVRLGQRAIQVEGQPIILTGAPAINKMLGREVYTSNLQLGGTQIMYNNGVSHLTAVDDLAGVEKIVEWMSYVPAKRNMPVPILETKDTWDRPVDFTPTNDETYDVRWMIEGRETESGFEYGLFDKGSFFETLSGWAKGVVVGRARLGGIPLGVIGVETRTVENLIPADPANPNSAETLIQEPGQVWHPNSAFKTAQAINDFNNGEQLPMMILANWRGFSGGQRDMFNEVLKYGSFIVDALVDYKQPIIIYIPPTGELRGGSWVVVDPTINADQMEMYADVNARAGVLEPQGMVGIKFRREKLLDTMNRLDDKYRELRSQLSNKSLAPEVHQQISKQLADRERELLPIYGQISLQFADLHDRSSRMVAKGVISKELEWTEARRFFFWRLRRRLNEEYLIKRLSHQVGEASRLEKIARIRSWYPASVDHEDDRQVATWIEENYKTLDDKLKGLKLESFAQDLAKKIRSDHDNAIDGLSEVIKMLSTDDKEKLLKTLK
human (hACC2), sequence (O00763 whole entry): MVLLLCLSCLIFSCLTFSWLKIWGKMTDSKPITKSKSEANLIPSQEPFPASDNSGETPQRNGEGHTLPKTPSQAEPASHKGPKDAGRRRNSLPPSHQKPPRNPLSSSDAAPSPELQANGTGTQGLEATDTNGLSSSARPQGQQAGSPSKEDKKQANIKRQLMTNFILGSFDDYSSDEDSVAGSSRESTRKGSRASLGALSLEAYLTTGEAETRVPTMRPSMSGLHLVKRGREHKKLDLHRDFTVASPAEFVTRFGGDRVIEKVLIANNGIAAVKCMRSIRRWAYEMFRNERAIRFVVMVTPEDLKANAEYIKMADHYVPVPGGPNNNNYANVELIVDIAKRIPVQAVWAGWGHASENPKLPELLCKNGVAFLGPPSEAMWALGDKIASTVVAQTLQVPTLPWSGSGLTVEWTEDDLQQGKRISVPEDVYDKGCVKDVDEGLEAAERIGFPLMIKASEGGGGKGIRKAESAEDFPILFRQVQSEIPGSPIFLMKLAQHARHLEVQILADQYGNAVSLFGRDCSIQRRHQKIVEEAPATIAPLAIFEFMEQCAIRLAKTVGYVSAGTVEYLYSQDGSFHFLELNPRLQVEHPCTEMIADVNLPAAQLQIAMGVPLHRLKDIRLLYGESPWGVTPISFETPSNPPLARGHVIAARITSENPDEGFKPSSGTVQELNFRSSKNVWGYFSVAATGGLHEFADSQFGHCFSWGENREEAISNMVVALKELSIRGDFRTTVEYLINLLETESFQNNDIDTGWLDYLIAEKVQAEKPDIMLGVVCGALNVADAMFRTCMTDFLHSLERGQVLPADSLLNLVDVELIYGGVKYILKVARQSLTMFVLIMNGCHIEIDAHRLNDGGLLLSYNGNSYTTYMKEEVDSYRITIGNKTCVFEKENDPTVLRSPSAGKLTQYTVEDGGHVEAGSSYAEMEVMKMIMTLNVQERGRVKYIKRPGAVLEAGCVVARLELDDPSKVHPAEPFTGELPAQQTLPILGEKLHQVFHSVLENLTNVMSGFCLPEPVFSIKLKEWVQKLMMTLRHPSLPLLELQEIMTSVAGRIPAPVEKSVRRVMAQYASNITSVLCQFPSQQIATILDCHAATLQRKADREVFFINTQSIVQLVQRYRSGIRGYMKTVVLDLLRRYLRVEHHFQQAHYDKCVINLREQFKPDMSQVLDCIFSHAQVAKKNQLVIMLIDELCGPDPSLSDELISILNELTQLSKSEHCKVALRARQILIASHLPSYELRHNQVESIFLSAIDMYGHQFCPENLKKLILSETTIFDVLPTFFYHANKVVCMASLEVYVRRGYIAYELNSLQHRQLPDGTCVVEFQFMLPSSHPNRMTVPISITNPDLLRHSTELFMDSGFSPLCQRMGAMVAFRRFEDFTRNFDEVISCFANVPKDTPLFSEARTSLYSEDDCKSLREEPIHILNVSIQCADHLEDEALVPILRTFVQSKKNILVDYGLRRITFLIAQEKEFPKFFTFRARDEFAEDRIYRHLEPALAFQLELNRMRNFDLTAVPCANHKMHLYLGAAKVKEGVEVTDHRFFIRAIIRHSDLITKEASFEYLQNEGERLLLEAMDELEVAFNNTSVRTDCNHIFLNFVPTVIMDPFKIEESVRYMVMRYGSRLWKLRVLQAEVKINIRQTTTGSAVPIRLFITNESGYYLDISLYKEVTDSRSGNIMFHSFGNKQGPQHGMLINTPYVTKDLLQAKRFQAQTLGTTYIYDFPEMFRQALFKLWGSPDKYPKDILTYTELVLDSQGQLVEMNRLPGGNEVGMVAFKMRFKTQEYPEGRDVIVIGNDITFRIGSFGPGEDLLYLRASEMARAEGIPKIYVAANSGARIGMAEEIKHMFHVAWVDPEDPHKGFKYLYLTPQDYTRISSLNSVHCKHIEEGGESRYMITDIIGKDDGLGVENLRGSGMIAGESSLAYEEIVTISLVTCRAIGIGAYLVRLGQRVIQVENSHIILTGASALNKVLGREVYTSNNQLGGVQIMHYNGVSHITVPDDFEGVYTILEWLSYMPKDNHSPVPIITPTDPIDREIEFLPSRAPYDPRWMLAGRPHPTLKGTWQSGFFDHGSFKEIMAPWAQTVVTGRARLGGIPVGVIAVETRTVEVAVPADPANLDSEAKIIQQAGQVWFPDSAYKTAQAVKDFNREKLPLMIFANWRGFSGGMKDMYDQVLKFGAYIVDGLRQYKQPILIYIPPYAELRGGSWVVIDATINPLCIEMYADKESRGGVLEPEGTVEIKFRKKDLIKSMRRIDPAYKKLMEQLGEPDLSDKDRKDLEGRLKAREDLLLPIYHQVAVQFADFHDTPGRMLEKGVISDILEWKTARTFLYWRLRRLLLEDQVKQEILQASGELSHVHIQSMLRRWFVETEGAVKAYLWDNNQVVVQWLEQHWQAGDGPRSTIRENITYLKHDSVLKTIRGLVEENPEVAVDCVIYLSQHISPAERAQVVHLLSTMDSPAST

Structure (SMILES) | IC50 (human (hACC2)) [nM] | MIC (C. albicans; [5]) [µg/mL] | MIC (C. krusei; [6]) [µg/mL] | MIC (C. parapsilosis; [7]) [µg/mL] | IC90 (Botrtyis cinerea (Bc); [8]) [µg/mL] | IC90 [1, 9] [µg/mL] | IC90 (Diplodia maydis (Dm); [10]) [µg/mL] | IC90 [2, 11] [µg/mL] | IC90 [3, 12] [µg/mL] | IC90 [4, 13] [µg/mL] | IC90 (Rhizoctonia solani (Rs); [14]) [µg/mL] | IC90 (Septoria tritici (St); [15]) [µg/mL] | IC50 (fungal (fACC2)) [nM] | MIC (C. albicans; [16]) [µg/mL] | MIC (C. krusei; [17]) [µg/mL] | MIC (C. parapsilosis; [18]) [µg/mL] | IC90 (Botrtyis cinerea (Bc); [19]) [µg/mL] | IC90 [1, 20] [µg/mL] | IC90 (Diplodia maydis (Dm); [21]) [µg/mL] | IC90 [2] [µg/mL] | also measured
COc1ccc(Cl)cc1[C@H](Cn1c(=O)n(C(C)(C)C(=O)NC(C)C)c(=O)c2c(C)c(-n3nccn3)sc21)OCC(C)(C)C#N [Compound I-227] | 10 to 40 | 0.25 to 1 (≈ 0.389 to 1.56 µM) | 0.25 to 1 (≈ 0.389 to 1.56 µM) | 1.01 to 2 (≈ 1.57 to 3.11 µM) | 2 (≈ 3.11 µM) | 2 (≈ 3.11 µM) | 2 (≈ 3.11 µM) | 2 (≈ 3.11 µM) | 2 (≈ 3.11 µM) | > 50 | 2 (≈ 3.11 µM) | > 50 | 1 to 5 |  |  |  |  |  |  |  | 
COc1ccc(F)cc1[C@](C)(Cn1c(=O)n(C(C)(C)C(=O)NC(C)C)c(=O)c2c(C)c(-n3nccn3)sc21)OCCC#N [Compound I-229] | > 40 | 0.25 to 1 (≈ 0.409 to 1.63 µM) | 0.25 to 1 (≈ 0.409 to 1.63 µM) | 1.01 to 2 (≈ 1.65 to 3.27 µM) | 0.4 (≈ 0.654 µM) | 2 (≈ 3.27 µM) | > 50 | 0.08 (≈ 0.131 µM) | 0.4 (≈ 0.654 µM) | > 50 | 2 (≈ 3.27 µM) | > 50 | 1 to 5 |  |  |  |  |  |  |  | 
COc1ccc(F)cc1[C@@](C)(Cn1c(=O)n(C(C)(C)C(=O)NC(C)C)c(=O)c2c(C)c(-n3nccn3)sc21)OCCC#N [Compound I-230] | 10 to 40 | 0.25 to 1 (≈ 0.409 to 1.63 µM) | 0.25 to 1 (≈ 0.409 to 1.63 µM) | 1.01 to 2 (≈ 1.65 to 3.27 µM) | 0.4 (≈ 0.654 µM) | 0.08 (≈ 0.131 µM) | 0.4 (≈ 0.654 µM) | 0.08 (≈ 0.131 µM) | 0.4 (≈ 0.654 µM) | 2 (≈ 3.27 µM) | 0.08 (≈ 0.131 µM) | > 50 | 0.3 to 1 |  |  |  |  |  |  |  | 
COc1ccc(F)cc1[C@@](O)(CCO)Cn1c(=O)n(C(C)(C)C(=O)NC(C)C)c(=O)c2c(C)c(-n3nccn3)sc21 [Compound I-231] | 10 to 40 |  |  |  |  |  |  |  |  |  |  |  | 1 to 5 | 0.06 to 0.249 (≈ 0.102 to 0.423 µM) | 0.06 to 0.249 (≈ 0.102 to 0.423 µM) | 1.01 to 2 (≈ 1.72 to 3.4 µM) | 2 (≈ 3.4 µM) | 2 (≈ 3.4 µM) | 2 (≈ 3.4 µM) | 0.4 (≈ 0.68 µM) | IC90 [3, 22]: 2 µg/mL (≈ 3.4 µM); IC90 [4, 23]: 10 µg/mL (≈ 17 µM); IC90 (Rhizoctonia solani (Rs); [24]): 0.08 µg/mL (≈ 0.136 µM); IC90 (Septoria tritici (St); [25]): > 50 µg/mL
Cc1c(-n2nccn2)sc2c1c(=O)n(C(C)(C)C(=O)NC(C)C)c(=O)n2C[C@H](OC(C)C)c1cc(F)ccc1CCC#N [Compound I-234] | 10 to 40 |  |  |  |  |  |  |  |  |  |  |  | 1 to 5 | 2.01 to 4 (≈ 3.3 to 6.56 µM) | 1.01 to 2 (≈ 1.66 to 3.28 µM) | 2.01 to 4 (≈ 3.3 to 6.56 µM) | 0.4 (≈ 0.656 µM) | 0.4 (≈ 0.656 µM) | 2 (≈ 3.28 µM) | 0.08 (≈ 0.131 µM) | IC90 [3, 22]: 0.08 µg/mL (≈ 0.131 µM); IC90 [4, 23]: > 50 µg/mL; IC90 (Rhizoctonia solani (Rs); [24]): 0.08 µg/mL (≈ 0.131 µM); IC90 (Septoria tritici (St); [25]): > 50 µg/mL
Cc1c(-n2nccn2)sc2c1c(=O)n(C(C)(C)C(=O)NC(C)C)c(=O)n2C[C@H](OCC(C)(C)O)c1cc(F)ccc1OCC#N [Compound I-235] | 10 to 40 |  |  |  |  |  |  |  |  |  |  |  | 1 to 5 | 0.25 to 1 (≈ 0.39 to 1.56 µM) | 2.01 to 4 (≈ 3.13 to 6.23 µM) | 1.01 to 2 (≈ 1.57 to 3.12 µM) | 2 (≈ 3.12 µM) | 0.4 (≈ 0.623 µM) | 2 (≈ 3.12 µM) | 0.4 (≈ 0.623 µM) | IC90 [3, 22]: 2 µg/mL (≈ 3.12 µM); IC90 [4, 23]: 10 µg/mL (≈ 15.6 µM); IC90 (Rhizoctonia solani (Rs); [24]): 0.4 µg/mL (≈ 0.623 µM); IC90 (Septoria tritici (St); [25]): > 50 µg/mL
CCc1ccc(F)cc1[C@H](Cn1c(=O)n(C(C)(C)C(=O)NC(C)C)c(=O)c2c(C)c(-n3nccn3)sc21)OCC(C)(C)C#N [Compound I-238] | 5 to 10 | 1.01 to 2 (≈ 1.62 to 3.21 µM) | > 4.01 | 2.01 to 4 (≈ 3.22 to 6.41 µM) | 0.08 (≈ 0.128 µM) | 0.08 (≈ 0.128 µM) | 2 (≈ 3.21 µM) | 0.08 (≈ 0.128 µM) | 0.08 (≈ 0.128 µM) | > 50 | 0.08 (≈ 0.128 µM) | > 50 | 1 to 5 |  |  |  |  |  |  |  | 
